From patent US20260207450A1, “ANTI-DANDRUFF COMPOSITIONS” (Firmenich SA, priority 2022, published 2026) come the findings set out here.

One assay concerns M. restricta. The experiment in a line: Disc-diffusion assay, additional perfumery materials in DMSO, M. restricta, 4 days. Format: cell-based, Malassezia restricta. The settings on record: Malassezia restricta, 96 h, read-out: Inhibition zone diameter (mm) on M. restricta. The protocol:
Anti-Malassezia effect of additional perfumery materials in DMSO was determined using disc-diffusion assay as described previously. Test samples solutions were prepared in DMSO to final concentrations of 0.5%, 1% or 2%. Discs (Whatman, 6 mm in diameter) were placed on inoculated agar plates. Aliquots (20 μL) of each sample solution was added to each disc. Agar plates were incubated at 30° C. for 4 days. After incubation, diameters of the clear inhibition zones around the discs were recorded
Anti-Malassezia effect of additional perfumery materials in DMSO was determined using disc-diffusion assay as described above. Test samples solutions were prepared in DMSO to final concentrations of 0.5%, 1% or 2%. Discs (Whatman, 6 mm in diameter) were placed on inoculated agar plates. Aliquots (20 μL) of each sample solution was added to each disc. Agar plates were incubated at 30° C. for 4 days. After incubation, diameters of the clear inhibition zones around the discs were recorded.
Anti-Malassezia effect of additional perfumery materials in solvent in DMSO was determined using disc-diffusion assay, as described previously. Test samples solutions are prepared in DMSO to final concentrations of 0.5%. Discs (Whatman, 6 mm in diameter) were placed on inoculated agar plates. Aliquots (20 μL) of each sample solution was added to each disc. Agar plates were incubated at 30° C. for 4 days. After incubation, diameters of the clear inhibition zones around the discs were measured.
On the technique in general: A growth-free zone around the sample is the usual read-out of agar diffusion tests.
For `c1ccc(Oc2ccccc2)cc1` [1,1′-oxydibenzene], the zone of inhibition at 0.5 % was 7.4 mm.

The same assay, now with this note: Malassezia restricta, 96 h; Table 18; 1% in DMSO, M. restricta, 4 days; read-out: Inhibition zone diameter (mm).
As for `CC(C)(O)Cc1ccc(CCC=O)cc1` [3-[4-(2-hydroxy-2-methylpropyl)phenyl]propanal], the zone of inhibition at 1 % was determined as 8.9 mm.

The assay is the same for the next values; noted with them: Malassezia restricta, 96 h; Table 18; 2% in DMSO, M. restricta, 4 days; read-out: Inhibition zone diameter (mm).
In the case of `CC(C)(O)Cc1ccc(CCC=O)cc1` [3-[4-(2-hydroxy-2-methylpropyl)phenyl]propanal], the zone of inhibition at 2 % was found to be 16 mm.

The same assay, now with this note: Malassezia restricta, 96 h; Table 19; in DMSO (1% or 2%, not specified per value), M. restricta, 4 days; read-out: Inhibition zone diameter (mm).
`CCCCCC/C=C/CO` [(E)-2-nonen-1-ol]: the zone of inhibition is 7.5 mm.

Take `CC/C=C/C=C/C=O` [(2E,4E)-2,4-heptadienal]: the zone of inhibition is greater than 40 mm.

In the case of `CC/C=C\CCCCO` [(Z)-5-octen-1-ol], the zone of inhibition is 7.3 mm.

Consider `CCCCCCCC/C=C/C=O` [(E)-2-undecenal], for which the zone of inhibition was greater than 40 mm.

Take `CCCCCCC/C=C\C=O` [(Z)-2-decenal]: the zone of inhibition is greater than 40 mm.

On to `CCCCC/C=C/C=C/C=O` [(E,E)-2,4-decadienal], for which the zone of inhibition was greater than 40 mm.

On to `CCCC/C=C\CCO` [(Z)-3-octen-1-ol], for which the zone of inhibition was determined as 7.1 mm.

As for `CC/C=C/CC/C=C/C=O` [(E,E)-2,6-nonadienal], the zone of inhibition is greater than 40 mm.

`CCCCC/C=C\CCC=O` [(Z)-4-decenal]: the zone of inhibition worked out at 7.2 mm.

Regarding `CCCCCCCC=C/C=C/C=O` [(2E)-2,4-dodecadienal], the zone of inhibition is 21.5 mm.

Regarding `CCCCCCC/C=C\CCC=O` [(4Z)-4-dodecenal], the zone of inhibition stood at 7.4 mm.

For `CCCCCCC=C/C=C/C=O` [(2E)-2,4-undecadienal], the zone of inhibition is 26.6 mm.

Staying with this assay, now noted: Malassezia restricta, 96 h; Table 20; 0.5% in DMSO, 4 days; read-out: Inhibition zone diameter (mm) on M. restricta.
For the molecule `COC(OC)C(C)(C)CC=C(C)C` [6,6-dimethoxy-2,5,5-trimethyl-2-hexene], the zone of inhibition at 0.5 % was 7.2 mm.

`CC1=C(C=O)C(C)(C)CC=C1` [2,6,6-trimethyl-1,3-cyclohexadiene-1-carbaldehyde]: the zone of inhibition at 0.5 % stood at 7.2 mm.

Consider `C=CC(C)CCCC(C)(C)O` (racemic) [(+/−)-2,6-dimethyl-7-octen-2-ol], for which the zone of inhibition at 0.5 % stood at 7.5 mm.

Turning to `CC(CC=O)CCc1ccccc1` (racemic) [(+/−)-3-methyl-5-phenylpentanal], the zone of inhibition at 0.5 % amounted to 7.6 mm.

On to `CC(C=O)Cc1ccc2c(c1)OCO2` (racemic) [(+/−)-3-(1,3-benzodioxol-5-yl)-2-methylpropanal], for which the zone of inhibition at 0.5 % was 19 mm.

Regarding `CC/C=C\CCOC(=O)C(C)C` [(Z)-3-hexenyl isobutyrate], the zone of inhibition at 0.5 % stood at 7.7 mm.

With `CCCCCCCC=O` [octanal], the zone of inhibition at 0.5 % was 7.5 mm.

Turning to `CCCCC/C=C\C=C\C(=O)OCC` [ethyl (2E,4Z)-2,4-decadienoate], the zone of inhibition at 0.5 % worked out at 7.4 mm.

On to `CCC(=CCC1CC=C(C)C1(C)C)CO` (racemic) [(+/−)-2-ethyl-4-(2,2,3-trimethyl-3-cyclopenten-1-yl)-2-buten-1-ol], for which the zone of inhibition at 0.5 % amounted to 7 mm.

For `CC(=CC=O)CCC(C)=C(C)C` [3,6,7-trimethyl-2,6-octadienal], the zone of inhibition at 0.5 % was determined as 8.7 mm.

For the molecule `O=C1CCCCCCCCCCCC(=O)OCCO1` [1,4-dioxacycloheptadecane-5, 17-dione], the zone of inhibition at 0.5 % amounted to 7.3 mm.

On to `CC1(C)CCC[C@]2(C)[C@H]3CCO[C@]3(C)CC[C@@H]12` [(−)-(3aR,5aS,9aS,9bR)-3a,6,6,9a-tetramethyldodecahydronaphtho[2,1-b]furan], for which the zone of inhibition at 0.5 % came to 7.7 mm.

`CC/C(=C\C[C@H]1CC=C(C)C1(C)C)CO` [(−)-(2E)-2-ethyl-4-[(1R)-2,2,3-trimethyl-3-cyclopenten-1-yl]-2-buten-1-ol]: the zone of inhibition at 0.5 % amounted to 7.6 mm.

As for `C/C(C=O)=C\c1ccccc1` [(2E)-2-methyl-3-phenyl-2-propenal], the zone of inhibition at 0.5 % stood at 8.1 mm.

Consider `Cc1ccc2c(c1)CC(C)(CO)C2` (racemic) [(+/−)-(2,5-dimethyl-2,3-dihydro-1H-inden-2-yl)methanol], for which the zone of inhibition at 0.5 % was determined as 7 mm.

Turning to `CCCCCCCCCC/C=C/C=O` [(E)-2-tridecenal], the zone of inhibition at 0.5 % turned out to be 15.2 mm.

For `CC1=CCC(C/C=C(\C)CO)C1(C)C` (racemic) [(+/−)-(2E)-2-methyl-4-(2,2,3-trimethyl-3-cyclopenten-1-yl)-2-buten-1-ol], the zone of inhibition at 0.5 % is 7.6 mm.

For `CC(=O)OCCC1=CCC2CC1C2(C)C` (centres unmarked) [2-(6,6-dimethyl-bicyclo[3.1.1]hept-2-en-2-yl)ethyl acetate], the zone of inhibition at 0.5 % amounted to 7.5 mm.

As for `CC1(C)CC=C(CCC=O)CC1` [3-(4,4-dimethyl-1-cyclohexen-1-yl)propanal], the zone of inhibition at 0.5 % came to 8.9 mm.

Regarding `Cc1ccc2c(c1)OCC(=O)CO2` [7-methyl-2H-1,5-benzodioxepin-3(4H)-one], the zone of inhibition at 0.5 % was found to be 7 mm.

With `Cc1cc2c(cc1C=O)C(C)(C)[C@H](C)[C@@H](C)C2(C)C` (racemic) [(6RS,7RS)-3,5,5,6,7,8,8-heptamethyl-5,6,7,8-tetrahydro-2-naphthalenecarbaldehyde], the zone of inhibition at 0.5 % came to 7.8 mm.

Turning to `CC(C=O)c1ccccc1` (centres unmarked) [2-phenylpropanal], the zone of inhibition at 0.5 % is 7 mm.

Take `C=C1CCCC(C)(C)C1C(=O)OC` (racemic) [(+/−)-methyl 2,2-dimethyl-6-methylidenecyclohexanecarboxylate]: the zone of inhibition at 0.5 % was 7.5 mm.

As for `CCCCCC/C(C=O)=C\c1ccccc1` [(2E)-2-benzylideneoctanal], the zone of inhibition at 0.5 % was found to be 7.2 mm.

For the molecule `CCCCCC/C=C/C=O` [(E)-2-nonenal], the zone of inhibition at 0.5 % stood at 38 mm.

For the molecule `CC1(C)C2CC=C(CCC=O)C1C2` (centres unmarked) [3-(6,6-dimethyl-bicyclo[3.1.1]hept-2-en-2-yl)propanal], the zone of inhibition at 0.5 % worked out at 7.3 mm.

As for `CC(C)=CCC[C@@H](C)CC#N` [(−)-(R)-3,7-dimethyl-6-octenenitrile], the zone of inhibition at 0.5 % worked out at 7.2 mm.

As for `CCCCCCCCCC(C)C=O` (racemic) [(+/−)-2-methylundecanal], the zone of inhibition at 0.5 % stood at 7.1 mm.

`CCCCCCCCC(C)C=O` (racemic) [(+/−)-2-methyldecanal]: the zone of inhibition at 0.5 % was determined as 7.1 mm.

Turning to `CCCCC/C=C/CCC=O` [(4E)-4-decenal], the zone of inhibition at 0.5 % was found to be 7.2 mm.

`COC(C)(C)C1CC=C(C)CC1` (centres unmarked) [4-(2-methoxy-2-propanyl)-1-methylcyclohexene]: the zone of inhibition at 0.5 % was 7 mm.

With `CCCCC/C=C/C=O` [(E)-2-octenal], the zone of inhibition at 0.5 % amounted to 24.8 mm.

Consider `CNc1ccccc1C(=O)OC` [methyl 2-(methylamino)benzoate], for which the zone of inhibition at 0.5 % is 7.4 mm.

On to `CC(C)=CCCC(C)CCOCC=O` (racemic) [(+/−)-[(3,7-dimethyl-6-octen-1-yl)oxy]acetaldehyde], for which the zone of inhibition at 0.5 % is 9.7 mm.

Turning to `COc1cc(C=O)ccc1OC(=O)C(C)C` [4-formyl-2-methoxyphenyl 2-methylpropanoate], the zone of inhibition at 0.5 % worked out at 10.2 mm.

On to `CC(C)=CCCC(C)CC=O` (racemic) [(+/−)-3,7-dimethyl-6-octenal], for which the zone of inhibition at 0.5 % amounted to 7.3 mm.

Consider `Cc1ccc(CC=O)cc1` [(4-methylphenyl)acetaldehyde], for which the zone of inhibition at 0.5 % came out at 10.6 mm.

`CC(C)CCCC(C)(C)O` [2,6-dimethyl-2-heptanol]: the zone of inhibition at 0.5 % turned out to be 7.7 mm.

Take `CC/C=C\CCCCC=O` [(Z)-6-nonenal]: the zone of inhibition at 0.5 % was 7.2 mm.

Regarding `CCCCCCCCC=O` [nonanal], the zone of inhibition at 0.5 % turned out to be 7.3 mm.

Regarding `CC(C)=CCC[C@@H](C)CC=O` [(+)-(R)-3,7-dimethyl-6-octenal], the zone of inhibition at 0.5 % worked out at 7.1 mm.

Still in this assay, the particulars now being: Malassezia restricta, 96 h; read-out: Inhibition zone diameter (mm).
Take `C/C(=C\c1ccc(C)cc1)CC(C)C=O` (racemic) [(+/−)-(4E)-2,4-dimethyl-5-(4-methylphenyl)-4-pentenal]: the zone of inhibition at 0.5 % stood at 7.8 mm.

Staying with this assay, now noted: Table 19; in DMSO (0.5%, 1% or 2%, not specified per value), M. restricta, 4 days.
Regarding “(+/−)-(4Z)-4,8-dimethyl-4,9-decadienal + (+/−)-(4E)-4,8-dimethyl-4,9-decadienal”, the “Inhibition zone diameter (mm)” value is reported as 7.3 mm.

Staying with this assay, now noted: Table 20; 0.5% in DMSO, 4 days.
Consider “(1RS,2RS)-2,4-dimethyl-3-cyclohexene-1-carbaldehyde + (1RS,2SR)-2,4-dimethyl-3-cyclohexene-1-carbaldehyde”, for which the “Inhibition zone diameter (mm) on M. restricta” value came to 8.0 mm.

For “(+)-(3S)-3-[(1R)-4-methyl-3-cyclohexen-1-yl]butanal + (+)-(3R)-3-[(1R)-4-methyl-3-cyclohexen-1-yl]butanal”, the “Inhibition zone diameter (mm) on M. restricta” value was 7.3 mm.

For the molecule “cis-4-(2-methyl-2-propanyl)cyclohexyl acetate + trans-4-(2-methyl-2-propanyl)cyclohexyl acetate”, the “Inhibition zone diameter (mm) on M. restricta” value amounted to 7.2 mm.

Regarding “(2R)-2-methyl-4-[(1R)-2,2,3-trimethyl-3-cyclopenten-1-yl]-4-pentenal + (2S)-2-methyl-4-[(1R)-2,2,3-trimethyl-3-cyclopenten-1-yl]-4-pentenal”, the “Inhibition zone diameter (mm) on M. restricta” value is given as 7.0 mm.
